In series [1] the target is T1, human recombinant DPP4 protein (Homo sapiens, UniProt P27487).
T1 construct: purchased Acrobiosystems DP4-H5211
Description: Inhibitory activity against DPP4 protease activity (H-Gly-Pro-AMC fluorescence). It is filed as biochemical. Particulars: 125 pM DPP4 working solution, 90 min at room temperature. In short, it runs like this:
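125 pM DPP4 working solution and 250 µM H-Gly-Pro-AMC working solution (stock levels, not final) in 20 mM Tris-HCl, 100 mM NaCl, mixed with compound in 4-fold dilution series. Reaction 90 min at room temperature in the dark; AMC fluorescence read at ex 380/em 460 nm, IC50 fitted from the concentration series.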

Series [2] addresses T2, human recombinant PREP protein (Homo sapiens, UniProt P48147).
T2 construct: purchased R&D systems 4308-SE-010
T2 sequence (P48147 1-710): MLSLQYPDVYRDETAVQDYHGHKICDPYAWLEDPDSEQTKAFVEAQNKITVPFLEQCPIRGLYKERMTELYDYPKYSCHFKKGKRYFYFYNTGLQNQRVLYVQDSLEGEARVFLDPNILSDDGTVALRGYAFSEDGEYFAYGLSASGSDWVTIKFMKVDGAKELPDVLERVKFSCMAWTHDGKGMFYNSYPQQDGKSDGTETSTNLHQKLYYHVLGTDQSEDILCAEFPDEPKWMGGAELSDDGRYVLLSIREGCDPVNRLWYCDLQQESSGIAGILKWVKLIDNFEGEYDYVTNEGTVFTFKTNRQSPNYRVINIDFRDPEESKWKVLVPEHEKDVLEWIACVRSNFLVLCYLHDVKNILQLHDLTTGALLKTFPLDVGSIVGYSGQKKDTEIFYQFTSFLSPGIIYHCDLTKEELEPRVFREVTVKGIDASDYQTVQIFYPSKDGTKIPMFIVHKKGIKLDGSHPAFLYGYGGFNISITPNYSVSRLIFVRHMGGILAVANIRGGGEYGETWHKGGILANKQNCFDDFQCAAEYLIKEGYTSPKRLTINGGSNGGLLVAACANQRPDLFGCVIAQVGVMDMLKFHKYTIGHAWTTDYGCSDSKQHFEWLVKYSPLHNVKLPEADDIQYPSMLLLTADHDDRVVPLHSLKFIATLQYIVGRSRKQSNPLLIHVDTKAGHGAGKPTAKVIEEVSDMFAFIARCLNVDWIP
Description: Inhibitory activity against PREP protease activity, reported as PREP/FAP IC50 ratio. The format is biochemical. Particulars: ratio of PREP IC50 to FAP IC50. The method, then:
The human recombinant PREP protein (R&D systems, 4308-SE-010) was formulated into a 125 pM working solution with a assay buffer (25 mM Tris-HCl, 250 mM NaCl, 2.5 mM DTT, 1 mg/mL BSA), and the PREP substrate (Z-Gly-Pro-AMC (LEONBIO, 68542-93-8)) was diluted to a 125 µM PREP substrate working solution with the assay buffer. 40 µl of PREP working solution and 20 µl of compounds at different concentrations (4-fold dilution) were taken, then 40 µl of PREP substrate working solution was added, and the mixture was uniformly mixed on a shaker at room temperature for 1 min. The uniformly mixed mixture was reacted at room temperature in the dark for 90 min. Reading was made by microplate reader at excitation and emission wavelengths of 380 nm and 460 nm. The original data was saved, and the IC50 value of the compound was obtained by analyzing the data with Graphpad PRISM.

In series [3] the target is T3, human recombinant FAP protein (Homo sapiens, UniProt Q12884).
T3 construct: purchased Acrobiosystems FAP-H82Q6
T3 sequence (Q12884 1-760): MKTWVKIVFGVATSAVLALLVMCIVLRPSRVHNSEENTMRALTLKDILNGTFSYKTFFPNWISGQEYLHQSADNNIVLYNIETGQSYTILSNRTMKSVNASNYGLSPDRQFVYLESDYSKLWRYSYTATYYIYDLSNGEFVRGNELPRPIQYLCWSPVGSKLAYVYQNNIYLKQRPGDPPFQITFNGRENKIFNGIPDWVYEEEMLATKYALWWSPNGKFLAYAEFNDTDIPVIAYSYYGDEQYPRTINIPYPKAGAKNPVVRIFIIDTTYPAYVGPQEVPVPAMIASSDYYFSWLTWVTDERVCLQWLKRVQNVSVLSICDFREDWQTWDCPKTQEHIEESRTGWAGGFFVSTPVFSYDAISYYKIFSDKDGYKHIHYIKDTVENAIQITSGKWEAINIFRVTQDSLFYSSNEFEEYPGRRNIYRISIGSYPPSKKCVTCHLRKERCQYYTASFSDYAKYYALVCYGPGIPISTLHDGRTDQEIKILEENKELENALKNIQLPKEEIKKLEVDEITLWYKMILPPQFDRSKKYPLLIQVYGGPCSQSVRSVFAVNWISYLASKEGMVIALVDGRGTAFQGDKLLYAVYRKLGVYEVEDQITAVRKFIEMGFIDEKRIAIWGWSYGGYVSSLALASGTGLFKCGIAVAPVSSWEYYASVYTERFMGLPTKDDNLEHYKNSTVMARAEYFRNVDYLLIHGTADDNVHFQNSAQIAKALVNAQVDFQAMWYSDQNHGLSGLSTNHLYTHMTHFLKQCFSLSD
Description: Inhibitory activity against FAP protease activity (Z-Gly-Pro-AMC fluorescence). It is filed as biochemical. Particulars: 125 pM FAP working solution, 90 min at room temperature; read-out: FAP IC50. In a few lines: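 Working solutions of 125 pM recombinant human FAP and 150 µM Z-Gly-Pro-AMC, in pH 7.5 Tris buffer with 1 M NaCl and 1 mg/mL BSA, combined with 4-fold compound dilutions and reacted 90 min at room temperature in the dark. AMC fluorescence (Ex 380/Em 460 nm) used to fit IC50.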

A further series in a line: in vitro. The following applies: CD-1, mouse, plasma.

The text below walks through data of patent EP4653451A1, “POLYPEPTIDE COMPOUND AND USE THEREOF” (Chengdu New Radiomedicine Technology Co., Ltd., priority 2023, dated 2024).

For orientation: IC50 means the midpoint of a concentration-inhibition curve. Broadly, the share remaining is what is left of the initial amount, in per cent.

Structures are written as SMILES. Counter-ions that a name gives are not always drawn.

T1 sequence (P27487 whole entry): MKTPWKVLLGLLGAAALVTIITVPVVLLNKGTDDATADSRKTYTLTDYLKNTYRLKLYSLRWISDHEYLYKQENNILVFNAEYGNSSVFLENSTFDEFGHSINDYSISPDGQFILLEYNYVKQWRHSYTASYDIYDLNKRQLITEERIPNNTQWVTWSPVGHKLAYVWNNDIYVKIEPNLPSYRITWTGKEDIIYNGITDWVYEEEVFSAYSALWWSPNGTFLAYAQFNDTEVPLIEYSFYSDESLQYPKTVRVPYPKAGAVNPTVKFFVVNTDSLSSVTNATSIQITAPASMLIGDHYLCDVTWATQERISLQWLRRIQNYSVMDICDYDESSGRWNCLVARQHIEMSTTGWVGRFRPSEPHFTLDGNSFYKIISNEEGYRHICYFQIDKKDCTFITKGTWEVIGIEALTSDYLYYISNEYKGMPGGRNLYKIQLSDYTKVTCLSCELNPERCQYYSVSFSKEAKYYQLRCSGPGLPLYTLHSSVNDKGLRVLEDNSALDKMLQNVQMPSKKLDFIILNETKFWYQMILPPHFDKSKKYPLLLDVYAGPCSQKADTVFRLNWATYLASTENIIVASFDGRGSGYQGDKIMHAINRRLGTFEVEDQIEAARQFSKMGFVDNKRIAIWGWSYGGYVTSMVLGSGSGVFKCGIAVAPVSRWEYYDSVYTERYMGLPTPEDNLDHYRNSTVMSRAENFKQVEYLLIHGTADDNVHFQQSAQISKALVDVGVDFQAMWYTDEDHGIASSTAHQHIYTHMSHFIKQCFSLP
Description for in vitro: The plasma stability experiment was performed using plasma from CD-1 mice. The compounds were diluted to a concentration of 1 mM with methanol. To 0.792 mL of plasma, 8.00 µL of 1 mM of each test compound was added, and 50.0 µL of the plasma sample was taken after uniform mixing. The remaining sample was placed in a 37°C water bath and incubated for 24 h. […] After centrifugation, the sample was diluted 1-fold with 0.2% trifluoroacetic acid and analyzed by LC-MS/MS.

With `CCCCCC(=O)N[C@H]1CSCc2cccc(c2F)CSC[C@@H](CNC(=O)C[C@H]2CC[C@H](NC(=O)CCNC(=O)CN3CCN(CC(=O)O)CCN(CC(=O)O)CCN(CC(=O)O)CC3)CC2)NC(=O)[C@H](Cc2ccccc2)NC(=O)[C@H](CCC(N)=O)NC(=O)[C@H]([C@@H](C)O)NC(=O)[C@@H]2CCCN2C(=O)[C@@H]2CCCN2C1=O` [Compound 15, Hex-Cys-Pro-Pro-Thr-Gln-Phe-Cys-CH2NH-(trans-4-aminocyclohexane acetic acid-betaAla-DOTA) (Cys bridge 2,6-bis(bromomethyl)fluorobenzene) trifluoroacetate], the IC50 in series [1] is over 10 µM; in series [3], 0.67 nM. The PREP/FAP entry in series [2] is “B (10000 > B > 3300)”. In the series “in vitro”, this molecule showed a fraction remaining at 24 h, 10 µM of 93%.
The like results for `CCCCCC(=O)N[C@H]1CSCc2cccc(c2F)CSC[C@@H](CNC(=O)C[C@@H](C)NC(=O)[C@H]2CC[C@H](CNC(=O)CN3CCN(CC(=O)O)CCN(CC(=O)O)CCN(CC(=O)O)CC3)CC2)NC(=O)[C@H](Cc2ccccc2)NC(=O)[C@H](CCC(N)=O)NC(=O)[C@H]([C@@H](C)O)NC(=O)[C@@H]2CCCN2C(=O)[C@@H]2CCCN2C1=O` [Compound 16, Hex-Cys-Pro-Pro-Thr-Gln-Phe-Cys-CH2NH-(D-beta-HomoAla-tranexamic acid-DOTA) (Cys bridge 2,6-bis(bromomethyl)fluorobenzene) trifluoroacetate] were, in that order, over 10 µM, 0.41 nM, “B (10000 > B > 3300)” and 96%.
